Patent US12681015B2, “Methods for predicting patient response to DMARDs” (Queen Mary University of London, priority 2019, dated 2026)
Entries after “also recorded” stand apart in the source; their conditions may differ.

Assays:
[1] = system: SPM formation in human peripheral blood; assay: Human whole blood incubation with MTX, plasma SPM by LC-MS/MS lipid mediator profiling; assay type: cell-based; conditions: MTX 100 nM, 37° C., 45 min
Experimental: Plasma was obtained by centrifugation and peripheral blood SPM concentrations were determined using LC-MS/MS based lipid mediator profiling. (A) OPLS-DA analysis of plasma SPM concentrations. Colored spherical areas display 95% confidence region of respective incubations. […] Results for A, B are representative of n=6 donors from three distinct experiments. […] Blood was then collected after 1 hour and SPM concentrations were determined using LC-MS/MS based lipid mediator profiling (D) oPLS-DA analysis of plasma SPM concentrations. Colored areas display 95% confidence region of respective incubations. […] Results are representative of n=4 mice per group and experiments were conducted on two distinct occasions.
Incubations were quenched and SPM were identified and quantified using LC-MS/MS-based lipid mediator profiling. Results are mean±SEM. n=6 volunteers per group.
Plasma was obtained from peripheral blood of healthy volunteers, patients and mouse following centrifugation at 1500×g for 10 min at room temperature. Paws were collected and immediately transferred to liquid nitrogen prior to homogenization in 1 ml ice cold MeOH and homogenized using a glass dounce. All samples for LC-MS/MS-based profiling were extracted using solid-phase extraction columns as in Walker, M. E., Souza, P. R., Colas, R. A. & Dalli, J. “13-Series resolvins mediate the leukocyte-platelet actions of atorvastatin and pravastatin in inflammatory arthritis.” FASEB J 31, 3636-3648 (2017), the contents of which are incorporated herein by reference. Prior to sample extraction, deuterated internal standards, representing each region in the chromatographic analysis (500 pg each) were added to facilitate quantification. Samples were kept at −20° C. for a minimum of 45 min to allow protein precipitation. Supernatants were subjected to solid phase extraction, methyl formate fraction collected, brought to dryness and suspended in phase (methanol/water, 1:1, vol/vol) for injection on a Shimadzu LC-20AD HPLC and a Shimadzu SIL-20AC autoinjector, paired with a QTrap 5500 or QTrap 6500 plus (Sciex). An Agilent Poroshell 120 EC-C18 column (100 mm×4.6 mm×2.7 μm) was kept at 50° C. and mediators eluted using a mobile phase consisting of methanol/water/acetic acid of 20:80:0.01 (vol/vol/vol) that was ramped to 50:50:0.01 (vol/vol/vol) over 0.5 min and then to 80:20:0.01 (vol/vol/vol) from 2 min to 11 min, maintained till 14.5 min and then rapidly ramped to 98:2:0.01 (vol/vol/vol) for the next 0.1 min. This was subsequently maintained at 98:2:0.01 (vol/vol/vol) for 5.4 min, and the flow rate was maintained at 0.5 ml/min. QTrap 5500 or QTrap 6500 plus were operated using a multiple reaction monitoring method as in Walker, M. E., Souza, P. R., Colas, R. A. & Dalli, J. “13-Series resolvins mediate the leukocyte-platelet actions of atorvastatin and pravastatin in inflammatory arthritis.” FASEB J 31, 3636-3648 (2017), the contents of which are incorporated herein by reference. Each lipid mediator was identified using established criteria including matching retention time to synthetic or authentic standards and at least 6 diagnostic ions (Walker, M. E., Souza, P. R., Colas, R. A. & Dalli, J. “13-Series resolvins mediate the leukocyte-platelet actions of atorvastatin and pravastatin in inflammatory arthritis.” FASEB J 31, 3636-3648 (2017), the contents of which are incorporated herein by reference).

[2] = system: inflammatory arthritis in wild type (WT) mice; assay: K/BxN serum inflammatory arthritis in wild type mice treated with MTX; assay type: in vivo
Experimental: (§1) Inflammatory arthritis was initiated in wild type (WT) and Alox15^−/− deficient mice by the administration of arthritogenic serum on days 0 and 2. […] Disease severity was assessed by measuring (A) disease activity using a 26-point clinical score (B) body weight and (C) paw edema. (D) Eight days post disease initiation joints were collected, leukocytes were liberated and the number of infiltrated leukocytes was determined using flow cytometry and fluorescently labelled antibodies. Results for A-C are mean±SEM and for D are percentage of vehicle n=7 mice per group. Results for D are representative of n=8 mice per group. Experiments were conducted on two distinct occasions. * p<0.05 vs Vehicle group for A-C using two-way ANOVA, for D using one-sample t test.
(§2) Inflammatory arthritis was initiated in wild type (WT) and Alox15^−/− mice by injecting K/BxN serum via intraperitoneal injection on days 0 and 2. […] Blood and joints were collected on day 8 and the concentrations of inflammatory eicosanoids in (A) plasma and (B) joints were determined using LC-MS/MS profiling.
(§3) Plasma was obtained from peripheral blood of healthy volunteers, patients and mouse following centrifugation at 1500×g for 10 min at room temperature. Paws were collected and immediately transferred to liquid nitrogen prior to homogenization in 1 ml ice cold MeOH and homogenized using a glass dounce. All samples for LC-MS/MS-based profiling were extracted using solid-phase extraction columns as in Walker, M. E., Souza, P. R., Colas, R. A. & Dalli, J. “13-Series resolvins mediate the leukocyte-platelet actions of atorvastatin and pravastatin in inflammatory arthritis.” FASEB J 31, 3636-3648 (2017), the contents of which are incorporated herein by reference. Prior to sample extraction, deuterated internal standards, representing each region in the chromatographic analysis (500 pg each) were added to facilitate quantification. Samples were kept at −20° C. for a minimum of 45 min to allow protein precipitation. Supernatants were subjected to solid phase extraction, methyl formate fraction collected, brought to dryness and suspended in phase (methanol/water, 1:1, vol/vol) for injection on a Shimadzu LC-20AD HPLC and a Shimadzu SIL-20AC autoinjector, paired with a QTrap 5500 or QTrap 6500 plus (Sciex). An Agilent Poroshell 120 EC-C18 column (100 mm×4.6 mm×2.7 μm) was kept at 50° C. and mediators eluted using a mobile phase consisting of methanol/water/acetic acid of 20:80:0.01 (vol/vol/vol) that was ramped to 50:50:0.01 (vol/vol/vol) over 0.5 min and then to 80:20:0.01 (vol/vol/vol) from 2 min to 11 min, maintained till 14.5 min and then rapidly ramped to 98:2:0.01 (vol/vol/vol) for the next 0.1 min. This was subsequently maintained at 98:2:0.01 (vol/vol/vol) for 5.4 min, and the flow rate was maintained at 0.5 ml/min. QTrap 5500 or QTrap 6500 plus were operated using a multiple reaction monitoring method as in Walker, M. E., Souza, P. R., Colas, R. A. & Dalli, J. “13-Series resolvins mediate the leukocyte-platelet actions of atorvastatin and pravastatin in inflammatory arthritis.” FASEB J 31, 3636-3648 (2017), the contents of which are incorporated herein by reference. […]

[3] = system: inflammatory arthritis in Alox15-/- mice; assay: K/BxN serum inflammatory arthritis in Alox15-/- mice treated with MTX; assay type: in vivo
Experimental: as §1, §2, §3

[4] = MTX 25 mg/kg i.p. days 3, 5 and 7
[5] = Alox15-/- mice, MTX 25 mg/kg i.p. days 3, 5 and 7

SMILES: CN(Cc1cnc2nc(N)nc(N)c2n1)c1ccc(C(=O)N[C@@H](CCC(=O)O)C(=O)O)cc1 [MTX, Methotrexate]
- mediators from the DHA, n-3 DPA and EPA bioactive metabolomes including PDX, RvD1 and RvE3 [1]: upregulation
- plasma SPM concentrations [1]: upregulates; also recorded: increase
- plasma 4S,14S-diHDHA concentration, Mean ± SEM ([1]; n=6): 2.82 ± 0.56
- plasma 5S,15S-diHETE concentration, Mean ± SEM ([1]; n=6): 5.32 ± 0.43
- plasma 7S,14S-diHDHA concentration, Mean ± SEM ([1]; n=6): 0.00 ± 0.00
- plasma 10S,17S-diHDPA concentration, Mean ± SEM ([1]; n=6): 0.55 ± 0.16
- plasma 13,14-dehydro-15-oxo-LXA4 concentration, Mean ± SEM ([1]; n=6): 82.74 ± 32.78
- plasma 14-oxo-MaR1 concentration, Mean ± SEM ([1]; n=6): 0.00 ± 0.00
- plasma 14S-diHDPA concentration, Mean ± SEM ([1]; n=6): 2.04 ± 0.41
- plasma 15-oxo-LXA4 concentration, Mean ± SEM ([1]; n=6): 3.78 ± 0.56
- plasma 15R-LXB4 concentration, Mean ± SEM ([1]; n=6): 2.13 ± 0.45
- plasma 17R-PD1 concentration, Mean ± SEM ([1]; n=6): 0.96 ± 0.39
- plasma 17R-RvD1 concentration, Mean ± SEM ([1]; n=6): 7.50 ± 1.97
- plasma 17R-RvD3 concentration, Mean ± SEM ([1]; n=6): 2.68 ± 0.67
- plasma 22-OH-MaR1 concentration, Mean ± SEM ([1]; n=6): 18.44 ± 4.31
- plasma 22-OH-PD1 concentration, Mean ± SEM ([1]; n=6): 7.86 ± 2.61
- plasma LXA4 concentration, Mean ± SEM ([1]; n=6): 0.55 ± 0.10
- plasma LXB4 concentration, Mean ± SEM ([1]; n=6): 13.42 ± 2.93
- plasma MaR1 concentration, Mean ± SEM ([1]; n=6): 24.53 ± 3.12
- plasma MaR1n-3 DPA concentration, Mean ± SEM ([1]; n=6): 1.09 ± 0.29
- plasma MaR2 concentration, Mean ± SEM ([1]; n=6): 0.00 ± 0.00
- plasma MaR2n-3 DPA concentration, Mean ± SEM ([1]; n=6): 7.97 ± 0.87
- plasma PD1 concentration, Mean ± SEM ([1]; n=6): 2.11 ± 0.24
- plasma PD1n-3 DPA concentration, Mean ± SEM ([1]; n=6): 0.34 ± 0.10
- plasma PD2n-3 DPA concentration, Mean ± SEM ([1]; n=6): 3.01 ± 1.23
- plasma PDx concentration, Mean ± SEM ([1]; n=6): 1.55 ± 0.22
- plasma RvD1 concentration, Mean ± SEM ([1]; n=6): 9.09 ± 1.13
- plasma RvD1n-3 DPA concentration, Mean ± SEM ([1]; n=6): 5.43 ± 1.10
- plasma RvD2 concentration, Mean ± SEM ([1]; n=6): 0.32 ± 0.13
- plasma RvD2n-3 DPA concentration, Mean ± SEM ([1]; n=6): 3.58 ± 1.16
- plasma RvD3 concentration, Mean ± SEM ([1]; n=6): 3.57 ± 1.38
- plasma RvD4 concentration, Mean ± SEM ([1]; n=6): 1.44 ± 0.59
- plasma RvD5 concentration, Mean ± SEM ([1]; n=6): 1.05 ± 0.22
- plasma RvD5n-3 DPA concentration, Mean ± SEM ([1]; n=6): 1.26 ± 0.24
- plasma RvD6 concentration, Mean ± SEM ([1]; n=6): 1.07 ± 0.21
- plasma RvE1 concentration, Mean ± SEM ([1]; n=6): 1.15 ± 0.32
- plasma RvE2 concentration, Mean ± SEM ([1]; n=6): 3.82 ± 1.15
- plasma RvE3 concentration, Mean ± SEM ([1]; n=6): 4.49 ± 0.23
- plasma RvT1 concentration, Mean ± SEM ([1]; n=6): 9.18 ± 2.50
- plasma RvT2 concentration, Mean ± SEM ([1]; n=6): 1.63 ± 0.35
- plasma RvT3 concentration, Mean ± SEM ([1]; n=6): 0.60 ± 0.24
- plasma RvT4 concentration, Mean ± SEM ([1]; n=6): 0.36 ± 0.15
- paw edema [2, 4]: decrease
- weight loss [2, 4]: improvement
- clinical scores ([2]; MTX 25 mg/kg i.p. days 3, 5 and 7, 26-point score): significant reduction
- number of eosinophils, neutrophils, monocytes and macrophages recruited to the joint ([2]; day 8, flow cytometry): decrease
- inflammatory eicosanoid concentrations ([2]; plasma and joints, day 8, LC-MS/MS): regulates; also recorded: reduction
- disease activity [3, 5]: no longer regulated
- weight loss [3, 5]: no longer regulated
- peripheral blood and circulating eicosanoid concentrations ([3]; Alox15-/- mice, day 8, LC-MS/MS): lost and no longer regulated
- leukocyte trafficking ([3]; Alox15-/- mice, day 8, flow cytometry): no longer regulated
- protective actions of MTX ([3]; mice lacking the ALOX15 enzyme): lost
